Experimental data published in US9708314B2, “Heterocyclic amide compound” (NISSAN CHEMICAL INDUSTRIES, LTD., priority 2013, dated 2017).

Assays:
Assay type in all cases: in vivo
[1] = tested on: directly sowed Oryza sativa; test: Test Example 3: effect on crop by application to foliage (Wagner pot, water depth 0.1-0.5 cm); conditions: Nineteenth Table, application to foliage
Summary of the method: (§1)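 Scores (0–5) reflect herbicidal ratio three weeks after a foliar spray: 0 is 5% or less, 5 is 90% or more. Plants had grown 14 days in alluvial soil pots in a 25–30 °C greenhouse before treatment with water-diluted emulsion at a set g/ha.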

Leptochloa chinensis = test: Test Example 3: herbicidal effect by application to foliage (Wagner pot, water depth 0.1-0.5 cm); conditions: Nineteenth Table, application to foliage
Summary of the method: as §1

Cyperus difformis = test: as above; conditions: Nineteenth Table, application to foliage
Summary of the method: as §1

[2] = tested on: Echinochloa crus-galli var. crus-galli; test: as above; conditions: Nineteenth Table, application to foliage
Summary of the method: as §1

Alopecurus myosuroides = test: Test Example 4: herbicidal effect by application to foliage (diluvial soil, plastic box); conditions: for J (Alopecurus myosuroides) herbicidal effect grade: foliage application, 320 g/ha
Summary of the method: (§2)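 Plants were grown in sterilized diluvial soil in a greenhouse at 25-30° C for 14 days, then sprayed on stems and leaves with water-diluted emulsion formulation at set rates in g/ha. Weed control and crop injury were scored 3 weeks after treatment on a 0-5 herbicidal-ratio scale, from 0 (≤5%) to 5 (≥90%).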

Avena fatua = test: as above; conditions: for I (Avena fatua) herbicidal effect grade: foliage application, 320 g/ha
Summary of the method: as §2

Digitaria ciliaris = test: as above; conditions: for F (Digitaria ciliaris) herbicidal effect grade: foliage application, 320 g/ha
Summary of the method: as §2

Amaranthus retroflexus = test: as above; conditions: for N (Amaranthus retroflexus) herbicidal effect grade: foliage application, 320 g/ha
Summary of the method: as §2

Setaria viridis = test: as above; conditions: for G (Setaria viridis) herbicidal effect grade: foliage application, 320 g/ha
Summary of the method: as §2

Abutilon theophrasti = test: as above; conditions: for M (Abutilon theophrasti) herbicidal effect grade: foliage application, 320 g/ha
Summary of the method: as §2

Galium spurium = test: as above; conditions: for Q (Galium spurium) herbicidal effect grade: foliage application, 320 g/ha
Summary of the method: as §2

Chenopodium album = test: as above; conditions: for O (Chenopodium album) herbicidal effect grade: foliage application, 320 g/ha
Summary of the method: as §2

Apera spica-venti. = test: as above; conditions: for L (Apera spica-venti.) herbicidal effect grade: foliage application, 320 g/ha
Summary of the method: as §2

Lolium multiflorum Lam. = test: as above; conditions: for K (Lolium multiflorum Lam.) herbicidal effect grade: foliage application, 320 g/ha
Summary of the method: as §2

[3] = tested on: Echinochloa crus-galli var. crus-galli; test: as above; conditions: for H (Echinochloa crus-galli var. crus-galli) herbicidal effect grade: foliage application, 320 g/ha
Summary of the method: as §2

Veronica persica = test: as above; conditions: for R (Veronica persica) herbicidal effect grade: foliage application, 320 g/ha
Summary of the method: as §2

Stellaria media = test: as above; conditions: for P (Stellaria media) herbicidal effect grade: foliage application, 320 g/ha
Summary of the method: as §2

[4] = application herbicide amount 200 g/ha
[5] = application to foliage, application herbicide amount 320 g/ha
[6] = application herbicide amount 320 g/ha

Row | Compound | b (effect on crop grade) [1, 6] | D (herbicidal effect grade) (Leptochloa chinensis; [6]) | E (herbicidal effect grade) (Cyperus difformis; [6]) | H (herbicidal effect grade) [2, 6] | J (Alopecurus myosuroides) herbicidal effect grade (Alopecurus myosuroides) | I (Avena fatua) herbicidal effect grade (Avena fatua) | F (Digitaria ciliaris) herbicidal effect grade (Digitaria ciliaris) | N (Amaranthus retroflexus) herbicidal effect grade (Amaranthus retroflexus) | G (Setaria viridis) herbicidal effect grade (Setaria viridis) | M (Abutilon theophrasti) herbicidal effect grade (Abutilon theophrasti) | Q (Galium spurium) herbicidal effect grade (Galium spurium) | O (Chenopodium album) herbicidal effect grade (Chenopodium album) | L (Apera spica-venti.) herbicidal effect grade (Apera spica-venti.) | K (Lolium multiflorum Lam.) herbicidal effect grade (Lolium multiflorum Lam.) | H (Echinochloa crus-galli var. crus-galli) herbicidal effect grade [3] | R (Veronica persica) herbicidal effect grade (Veronica persica) | P (Stellaria media) herbicidal effect grade (Stellaria media) | other results
1 | CC(C)c1nnc2c(C(=O)Nc3nnnn3C)ccc(C(F)(F)F)n12 [2-003] | – | – | – | – | – | – | – | – | – | – | – | – | – | – | – | – | – | b (effect on crop grade) [1, 4]: 0 (Herbicidal ratio of 5% or less (almost no effect)); D (herbicidal effect grade) (Leptochloa chinensis; [4]): 5 (Herbicidal ratio of 90% or more (almost completely withered)); E (herbicidal effect grade) (Cyperus difformis; [4]): 5 (Herbicidal ratio of 90% or more (almost completely withered)); H (herbicidal effect grade) [2, 4]: 5 (Herbicidal ratio of 90% or more (almost completely withered)); J: herbicidal effect on Alopecurus myosuroides (Alopecurus myosuroides; [5]): 3 (Herbicidal ratio of 40% or more and less than 70%); I: herbicidal effect on Avena fatua (Avena fatua; [5]): 3 (Herbicidal ratio of 40% or more and less than 70%); F: herbicidal effect on Digitaria ciliaris (Digitaria ciliaris; [5]): 5 (Herbicidal ratio of 90% or more (almost completely withered)); N: herbicidal effect on Amaranthus retroflexus (Amaranthus retroflexus; [5]): 5 (Herbicidal ratio of 90% or more (almost completely withered)); G: herbicidal effect on Setaria viridis (Setaria viridis; [5]): 5 (Herbicidal ratio of 90% or more (almost completely withered)); M: herbicidal effect on Abutilon theophrasti (Abutilon theophrasti; [5]): 5 (Herbicidal ratio of 90% or more (almost completely withered)); Q: herbicidal effect on Galium spurium (Galium spurium; [5]): 4 (Herbicidal ratio of 70% or more and less than 90%); O: herbicidal effect on Chenopodium album (Chenopodium album; [5]): 5 (Herbicidal ratio of 90% or more (almost completely withered)); L: herbicidal effect on Apera spica-venti. (Apera spica-venti.; [5]): 5 (Herbicidal ratio of 90% or more (almost completely withered)); K: herbicidal effect on Lolium multiflorum Lam. (Lolium multiflorum Lam.; [5]): 3 (Herbicidal ratio of 40% or more and less than 70%); H: herbicidal effect on Echinochloa crus-galli var. crus-galli [3, 5]: 5 (Herbicidal ratio of 90% or more (almost completely withered)); R: herbicidal effect on Veronica persica (Veronica persica; [5]): 5 (Herbicidal ratio of 90% or more (almost completely withered)); P: herbicidal effect on Stellaria media (Stellaria media; [5]): 5 (Herbicidal ratio of 90% or more (almost completely withered))
2 | Cn1nnnc1NC(=O)c1ccc(C(F)(F)F)n2c(CS(C)(=O)=O)nnc12 [2-034] | 5 (Herbicidal ratio of 90% or more (almost completely withered)) | 5 (Herbicidal ratio of 90% or more (almost completely withered)) | 5 (Herbicidal ratio of 90% or more (almost completely withered)) | 5 (Herbicidal ratio of 90% or more (almost completely withered)) | 5 (Herbicidal ratio of 90% or more (almost completely withered)) | 5 (Herbicidal ratio of 90% or more (almost completely withered)) | 5 (Herbicidal ratio of 90% or more (almost completely withered)) | 5 (Herbicidal ratio of 90% or more (almost completely withered)) | 5 (Herbicidal ratio of 90% or more (almost completely withered)) | 5 (Herbicidal ratio of 90% or more (almost completely withered)) | 5 (Herbicidal ratio of 90% or more (almost completely withered)) | 5 (Herbicidal ratio of 90% or more (almost completely withered)) | 5 (Herbicidal ratio of 90% or more (almost completely withered)) | 5 (Herbicidal ratio of 90% or more (almost completely withered)) | 5 (Herbicidal ratio of 90% or more (almost completely withered)) | 5 (Herbicidal ratio of 90% or more (almost completely withered)) | 5 (Herbicidal ratio of 90% or more (almost completely withered)) | –
3 | Cn1nnnc1NC(=O)c1ccc(C(F)(F)F)n2c(C[S+]([O-])CC(F)(F)F)nnc12 (stereo not shown) [2-035] | 5 (Herbicidal ratio of 90% or more (almost completely withered)) | 5 (Herbicidal ratio of 90% or more (almost completely withered)) | 4 (Herbicidal ratio of 70% or more and less than 90%) | 5 (Herbicidal ratio of 90% or more (almost completely withered)) | 3 (Herbicidal ratio of 40% or more and less than 70%) | 4 (Herbicidal ratio of 70% or more and less than 90%) | 5 (Herbicidal ratio of 90% or more (almost completely withered)) | 5 (Herbicidal ratio of 90% or more (almost completely withered)) | 5 (Herbicidal ratio of 90% or more (almost completely withered)) | 5 (Herbicidal ratio of 90% or more (almost completely withered)) | 2 (Herbicidal ratio of 20% or more and less than 40%) | 5 (Herbicidal ratio of 90% or more (almost completely withered)) | 4 (Herbicidal ratio of 70% or more and less than 90%) | 4 (Herbicidal ratio of 70% or more and less than 90%) | 5 (Herbicidal ratio of 90% or more (almost completely withered)) | 5 (Herbicidal ratio of 90% or more (almost completely withered)) | 5 (Herbicidal ratio of 90% or more (almost completely withered)) | –
4 | Cn1nnnc1NC(=O)c1ccc(C(F)(F)F)n2c(S(C)(=O)=O)nnc12 [2-037] | 5 (Herbicidal ratio of 90% or more (almost completely withered)) | 5 (Herbicidal ratio of 90% or more (almost completely withered)) | 5 (Herbicidal ratio of 90% or more (almost completely withered)) | 5 (Herbicidal ratio of 90% or more (almost completely withered)) | 5 (Herbicidal ratio of 90% or more (almost completely withered)) | 5 (Herbicidal ratio of 90% or more (almost completely withered)) | 5 (Herbicidal ratio of 90% or more (almost completely withered)) | 5 (Herbicidal ratio of 90% or more (almost completely withered)) | 5 (Herbicidal ratio of 90% or more (almost completely withered)) | 5 (Herbicidal ratio of 90% or more (almost completely withered)) | 5 (Herbicidal ratio of 90% or more (almost completely withered)) | 5 (Herbicidal ratio of 90% or more (almost completely withered)) | 5 (Herbicidal ratio of 90% or more (almost completely withered)) | 5 (Herbicidal ratio of 90% or more (almost completely withered)) | 5 (Herbicidal ratio of 90% or more (almost completely withered)) | 5 (Herbicidal ratio of 90% or more (almost completely withered)) | 5 (Herbicidal ratio of 90% or more (almost completely withered)) | –
5 | CCS(=O)(=O)c1nnc2c(C(=O)Nc3nnnn3C)ccc(C(F)(F)F)n12 [2-038] | 5 (Herbicidal ratio of 90% or more (almost completely withered)) | 5 (Herbicidal ratio of 90% or more (almost completely withered)) | 5 (Herbicidal ratio of 90% or more (almost completely withered)) | 5 (Herbicidal ratio of 90% or more (almost completely withered)) | 5 (Herbicidal ratio of 90% or more (almost completely withered)) | 5 (Herbicidal ratio of 90% or more (almost completely withered)) | 5 (Herbicidal ratio of 90% or more (almost completely withered)) | 5 (Herbicidal ratio of 90% or more (almost completely withered)) | 5 (Herbicidal ratio of 90% or more (almost completely withered)) | 5 (Herbicidal ratio of 90% or more (almost completely withered)) | 5 (Herbicidal ratio of 90% or more (almost completely withered)) | 5 (Herbicidal ratio of 90% or more (almost completely withered)) | 5 (Herbicidal ratio of 90% or more (almost completely withered)) | 5 (Herbicidal ratio of 90% or more (almost completely withered)) | 5 (Herbicidal ratio of 90% or more (almost completely withered)) | 5 (Herbicidal ratio of 90% or more (almost completely withered)) | 5 (Herbicidal ratio of 90% or more (almost completely withered)) | –
